Each structure is given as a SMILES string. In brackets after ≈: the same amount, converted by molar mass. Where only a bound is given, the exact number is not on record here.

Data set [1] in a line: physchem. The data set is classed as physicochemical. The note with it: for solubility at 2 h: 37 °C, pH 7.4, aqueous buffer, kinetic from dmso stock. The procedure:
Serial dilutions of test articles were prepared in dimethyl sulfoxide at 100× the final concentration. Test article solutions and blanks were diluted 100× into phosphate-buffered saline (PBS; 0.01 M sodium phosphate, pH 7.4, 137 mM NaCl, and 3 mM KCl) in a 96-well plate and mixed. After 2 h at 37° C., the presence of precipitate was detected by turbidity (absorbance at 540 nm). An absorbance value of greater than “mean+3xSD of the blank” (after subtracting background) was considered an indication of turbidity. The solubility limit was reported as the highest tested concentration with no evidence of turbidity.

Data set [2] is described as follows: physchem. In kind it is physicochemical. Particulars: for solubility: thermodynamic from solid. The procedure:
Starting with 0.5-5 mg test compound in a glass vial at room temperature, successive cycles of addition of vehicle, vortexing 15 s, and inspection were performed until all test compound dissolved. Vehicles were: 0.01 M sodium phosphate (pH 7.4); 5% dextrose in 0.01 M sodium phosphate (pH 7.4); and 0.5% carboxymethylcellulose (CMC)/0.5% Tween-80 (pH 8.4).

For data set [3], the target named is E. coli RNA polymerase σ70 holoenzyme (Escherichia coli (strain K12), UniProt P0A8T7+P0A8V2). In words: Fluorescence-detected assay of inhibition of Escherichia coli RNA polymerase. The note with it: read-out: RNAP-inhibitory activity E. coli RNAP IC50. The data set is classed as biochemical. The procedure: (§1) Fluorescence-detected RNA polymerase assays with E. coli RNA polymerase were performed by a modification of the procedure of Kuhlman et al., 2004 [Kuhlman, P., Duff, H. & Galant, A. (2004) A fluorescence-based assay for multisubunit DNA-dependent RNA polymerases. Anal. Biochem. 324, 183-190]. Reaction mixtures contained (20 μl): 0-100 nM test salt, 75 nM E. coli RNA polymerase σ^70 holoenzyme, 20 nM 384 bp DNA fragment containing the bacteriophage T4 N25 promoter, 100 μM ATP, 100 μM GTP, 100 μM UTP, 100 μM CTP, 50 mM Tris-HCl, pH 8.0, 100 mM KCl, 10 mM MgCl2, 1 mM DTT, 10 μg/ml bovine serum albumin, and 5.5% glycerol. Reaction components other than DNA and NTPs were pre-incubated for 10 min at 37° C. Reactions were carried out by addition of DNA and incubation for 5 min at 37° C., followed by addition of NTPs and incubation for 60 min at 37° C. DNA was removed by addition of 1 μl 5 mM CaCl2 and 2 U DNaseI (Ambion, Inc.), followed by incubation for 90 min at 37° C. RNA was quantified by addition of 100 μl RiboGreen RNA Quantitation Reagent (Invitrogen, Inc.; 1:500 dilution in Tris-HCl, pH 8.0, 1 mM EDTA), followed by incubation for 10 min at 25° C., followed by measurement of fluorescence intensity [excitation wavelength=485 nm and emission wavelength=535 nm; QuantaMaster QM1 spectrofluorometer (PTI, Inc.)]. IC50 is defined as the concentration of inhibitor resulting in 50% inhibition of RNA polymerase activity.

The target in data set [4] is M. tuberculosis RNA polymerase (Mycobacterium tuberculosis (strain ATCC 25618 / H37Rv), UniProt P9WGY7+P9WGY9). Kind of data set: Fluorescence-detected assay of inhibition of Mycobacterium tuberculosis RNA polymerase. In kind it is biochemical. Particulars: read-out: RNAP-inhibitory activity M. tuberculosis RNAP IC50. The procedure: as §1
Fluorescence-detected RNA polymerase assays with M. tuberculosis RNA polymerase were performed as in Example 17.1, using reaction mixtures containing (20 μl): 0-100 nM test salt, 75 nM M. tuberculosis RNA polymerase core enzyme, 300 nM M. tuberculosis σ^A, 20 nM 384 bp DNA fragment containing the bacteriophage T4 N25 promoter, 100 μM ATP, 100 μM GTP, 100 μM UTP, 100 μM CTP, 40 mM Tris-HCl, pH 8.0, 80 mM NaCl, 5 mM MgCl2, 2.5 mM DTT, and 12.7% glycerol. IC50 is defined as the concentration of inhibitor resulting in 50% inhibition of RNA polymerase activity.

The target in data set [5] is S. aureus RNA polymerase (Staphylococcus aureus (strain NCTC 8325 / PS 47), UniProt P47768+Q2G0N5). In words: Fluorescence-detected assay of inhibition of Staphylococcus aureus RNA polymerase. The data set is classed as biochemical. Particulars: read-out: RNAP-inhibitory activity S. aureus RNAP IC50. The procedure:
as §1
Fluorescence-detected RNA polymerase assays with S. aureus RNA polymerase were performed as in Example 17.1, using reaction mixtures containing (20 μl): 0-100 nM test salt, 75 nM S. aureus RNA polymerase core enzyme, 300 nM S. aureus σ^A, 20 nM 384 bp DNA fragment containing the bacteriophage T4 N25 promoter, 100 μM ATP, 100 μM GTP, 100 μM UTP, 100 μM CTP, 40 mM Tris-HCl, pH 8.0, 80 mM NaCl, 5 mM MgCl2, 2.5 mM DTT, and 12.7% glycerol. IC50 is defined as the concentration of inhibitor resulting in 50% inhibition of RNA polymerase activity.

Data set [6] has as its system Staphylococcus aureus ATCC 12600. Kind of data set: Inhibition of bacterial growth, spiral gradient endpoint assay, S. aureus. In kind it is cell-based. Particulars: ATCC12600, read-out: in vitro antibacterial activity S. aureus ATCC12600 MIC. The source says:
(§2) Minimum inhibitory concentrations (MICs) for Staphylococcus aureus ATCC 12600 and Escherichia coli D21f2tolC were quantified using spiral gradient endpoint assays, essentially as described [Wallace, A. and Corkill, J. (1989) Application of the spiral plating method to study antimicrobial action. J. Microbiol. Meths. 10, 303-310; Paton, J., Holt, A., and Bywater, M. (1990) Measurement of MICs of antibacterial agents by spiral gradient endpoint compared with conventional dilution methods. Int. J. Exp. Clin. Chemother. 3, 31-38; Schalkowsky S. (1994) Measures of susceptibility from a spiral gradient of drug concentrations. Adv. Exp. Med. Biol. 349, 107-120]. Assays employed exponential-gradient plates containing 150 mm×4 mm Mueller-Hinton II cation-adjusted agar and 0.4-100 μg/ml of test salt. Plates were prepared using an Autoplate 4000 spiral plater (Spiral Biotech, Inc.). Saturated overnight cultures were swabbed radially onto plates, and plates were incubated for 16 h at 37° C. For each culture, the streak length was measured using a clear plastic template (Spiral Biotech, Inc.), the test-salt concentration at the streak endpoint was calculated using the program SGE (Spiral Biotech, Inc.), and the MIC was defined as the calculated test-salt concentration at the streak endpoint.

Data set [7] deals with Escherichia coli D21f2tolC. Kind of data set: Inhibition of bacterial growth, spiral gradient endpoint assay, E. coli. In kind it is cell-based. Particulars: read-out: in vitro antibacterial activity E. coli D21f2tolC MIC.
Description: as §2

In data set [8] the test system is Mycobacterium tuberculosis H37Rv. In words: Inhibition of bacterial growth, microplate Alamar Blue assay, M. tuberculosis. In kind it is cell-based. Particulars: read-out: in vitro antibacterial activity M. tuberculosis H37Rv MIC.
Where [9] appears, read: pH 8.4, aqueous with cosolvent or surfactant or cyclodextrin.

In general, solubility refers to the concentration that dissolves in the medium under given conditions. A lower solubility goes with a poorly soluble substance. In general, IC50 refers to the point on the concentration scale where inhibition reaches its midpoint. By MIC is commonly meant the least concentration at which growth counts as inhibited. In data set [1], `[2H]C([2H])([2H])OC(=O)N/C=C/CCCc1cc(O)c(C(=O)/C(C)=C/c2cnc(Oc3ccc(F)cc3)s2)c(=O)o1` [Example 8] registered a solubility at 2 h of 100 µg/mL (≈ 193 µM). Moreover, the solubility in data set [2] (pH 7.4, aqueous buffer) is < 100 µg/mL; in data set [2] (pH 7.4, saline or isotonic), < 100 µg/mL; in data set [2] (setting [9]) it was < 100 µg/mL. Further, the IC50 is 4 nM in data set [3], 20 nM in data set [4] and 60 nM in data set [5]. Moreover, the minimal inhibitory concentration (MIC) amounted to 0.3 µg/mL (≈ 0.58 µM) in data set [6], 0.06 µg/mL (≈ 0.116 µM) in data set [7] and 0.8 µg/mL (≈ 1.55 µM) in data set [8].
Take `[2H]C([2H])([2H])OC(=O)N/C=C/CCCc1cc([O-])c(C(=O)/C(C)=C/c2cnc(Oc3ccc(F)cc3)s2)c(=O)o1.[Na+]` [Example 9]: the “times more soluble than the corresponding free acid (Example 8)” value in data set [1] is recorded as ≥ 50 times. For the same molecule, the solubility at 2 h in data set [1] is ≥ 5000 µg/mL. The “concentration at which it can be formulated” value in data set [2] is ≥ 10000 µg/mL. The solubility in data set [2] (pH 7.4, aqueous buffer) came out at 10000 µg/mL; in data set [2] (pH 7.4, saline or isotonic) it was 5000 µg/mL; in data set [2] (setting [9]) it was 20000 µg/mL. The IC50 in data set [4] and in data set [5] was 30 nM each time. Moreover, the MIC is 0.4 µg/mL in data set [6], 0.04 µg/mL in data set [7] and 0.4 µg/mL in data set [8].
Consider `[2H]C([2H])([2H])OC(=O)N/C=C/CCCc1cc([O-])c(C(=O)/C(C)=C/c2cnc(Oc3ccc(F)cc3)s2)c(=O)o1.[K+]` [Example 10], for which the IC50 in data set [3] is 6 nM. In addition, the MIC was found to be 0.2 µg/mL in data set [6] and 0.03 µg/mL in data set [7].
Turning to `[2H]C([2H])([2H])OC(=O)N/C=C/CCCc1cc(O)c(C(=O)/C(C)=C/c2cnc(Oc3ccc(F)c(Cl)c3)s2)c(=O)o1` [Example 11], the IC50 in data set [3] was found to be 3 nM; in data set [4] it was 30 nM; in data set [5], 1 nM. The MIC in data set [6] is 0.2 µg/mL (≈ 0.362 µM); in data set [7], 0.02 µg/mL (≈ 0.0362 µM); in data set [8], 0.8 µg/mL (≈ 1.45 µM).
On to `[2H]C([2H])([2H])OC(=O)N/C=C/CCCc1cc([O-])c(C(=O)/C(C)=C/c2cnc(Oc3ccc(F)c(Cl)c3)s2)c(=O)o1.[Na+]` [Example 12], for which the IC50 turned out to be 30 nM in data set [4] and 3 nM in data set [5]. Moreover, the MIC amounted to 0.2 µg/mL in data set [6], 0.03 µg/mL in data set [7] and 0.8 µg/mL in data set [8].
Turning to `[2H]C([2H])([2H])OC(=O)N/C=C/CCCc1cc(O)c(C(=O)/C(C)=C/c2cnc(Oc3ccc(-c4ccccc4)cc3)s2)c(=O)o1` [Example 13], the results for the IC50 in data set [3], in data set [4] and in data set [5] were 20 nM, > 6000 nM and 10 nM, respectively. Further, the MIC in data set [6] was > 8 µg/mL; in data set [7], 0.03 µg/mL (≈ 0.0521 µM); in data set [8], > 50 µg/mL.
In the case of `[2H]C([2H])([2H])OC(=O)N/C=C/CCCc1cc([O-])c(C(=O)/C(C)=C/c2cnc(Oc3ccc(-c4ccccc4)cc3)s2)c(=O)o1.[Na+]` [Example 14], the IC50 in data set [3] was 50 nM; in data set [4] it was > 6000 nM; in data set [5], 30 nM. Further, the MIC in data set [6] is > 8 µg/mL; in data set [7], 0.03 µg/mL; in data set [8] it was > 50 µg/mL.

Values taken from patent US20250115594A1, “ANTIBACTERIAL AGENTS: SOLUBLE SALTS AND AQUEOUS FORMULATIONS OF PYRONINS” (priority 2018, published 2025).
